From patent publication US4698352A, “4-oxo-1,4-dihydronicotinic acid derivatives, salts thereof, and antibacterial agents containing the same” (Toyama Chemical Co., Ltd., priority 1982, dated 1987)
Converted amounts (≈) assume the structure as drawn. Where two headings read alike, the source gives them in different places.

Columns and labels:
Assay in all cases: Antibacterial activity (MIC), agar dilution
Type in all cases: cell-based
[1] = test system: E. coli GN5482**; details: Escherichia coli, 20 h; E. coli GN5482, cephalospolinase-producing; 10^6 cells per ml; read-out: MIC
Text: (§1) The amount of bacteria inoculated was 10^4 cells per plate (10^6 cells per ml).
(§2) ** Cephalospolinase-producing bacteria

[2] = test system: Pro. vulgaris GN76**; details: Proteus vulgaris
Text: as §1, §2

[3] = test system: Ps. aeruginosa GN918**; details: Pseudomonas aeruginosa, Ps. aeruginosa GN918, cephalospolinase-producing, 10^6 cells per ml
Text: as §1, §2

[4] = test system: St. aureus FDA209P; details: Staphylococcus aureus, FDA209P, 20 h
Text: as §1

[5] = test system: Ent. cloacae IID977; details: Enterobacter cloacae, IID977, 20 h
Text: as §1

[6] = test system: Pro. vulgaris GN3027; details: Proteus vulgaris, GN3027, 20 h, Pro. vulgaris GN3027; 10^6 cells per ml; 37° C., 20 hours; read-out: MIC
Text: as §1

[7] = test system: Pro. mirabilis T-111; details: Proteus mirabilis, 37° C.
Text: as §1

[8] = test system: Kl. pneumoniae Y-50; details: Klebsiella pneumoniae, Y50, 20 h, 10^6 cells per ml, 37° C., read-out: MIC
Text: as §1

[9] = test system: E. coli TK-111; details: Escherichia coli, TK111, 20 h, E. coli TK-111; 10^6 cells per ml; 37° C., 20 hours; read-out: MIC
Text: as §1

[10] = test system: Ps. aeruginosa S-68; details: Pseudomonas aeruginosa
Text: as §1

[11] = test system: Pro. morganii T-216; details: Morganella morganii, 37° C.
Text: as §1

[12] = test system: Kl. pneumoniae Y-41; details: Klebsiella pneumoniae, Y41, 10^6 cells per ml, 37° C., 20 hours, read-out: MIC
Text: as §1

[13] = test system: E. coli NIHJ JC-2; details: Escherichia coli, NIHJJC2, 20 h
Text: as §1

[14] = test system: Ps. aeruginosa IFO3445; details: Pseudomonas aeruginosa
Text: as §1

[15] = test system: Kl. pneumoniae Y-4*; details: Klebsiella pneumoniae, 20 h, Kl. pneumoniae Y-4, penicillinase-producing; 10^6 cells per ml; read-out: MIC
Text: as §1
(§3) * Penicillinase-producing bacteria

[16] = test system: St. aureus F-137*; details: Staphylococcus aureus, 20 h
Text: as §1, §3

[17] = test system: Ps. aeruginosa GN3379*; details: Pseudomonas aeruginosa, Ps. aeruginosa GN3379, penicillinase-producing, 10^6 cells per ml
Text: as §1, §3

[18] = test system: E. coli TK-3*; details: Escherichia coli, 20 h
Text: as §1, §3

[19] = test system: Aci. antitratus A-6; details: 20 h, Aci. antitratus A-6; 10^6 cells per ml; 37° C., 20 hours; read-out: MIC
Text: as §1

[20] = 20 h, Pro. vulgaris GN76, cephalospolinase-producing, 10^6 cells per ml, read-out: MIC
[21] = St. aureus FDA209P, 10^6 cells per ml, 37° C., 20 hours, read-out: MIC
[22] = St. aureus F-137, penicillinase-producing, 10^6 cells per ml, read-out: MIC
[23] = Ent. cloacae IID977, 10^6 cells per ml, 37° C., 20 hours, read-out: MIC
[24] = S68, Ps. aeruginosa S-68, 10^6 cells per ml, 37° C., 20 hours, read-out: MIC
[25] = E. coli NIHJ JC-2, 10^6 cells per ml, 37° C., 20 hours, read-out: MIC
[26] = Ps. aeruginosa IFO3445, 10^6 cells per ml, 37° C., 20 hours, read-out: MIC
[27] = E. coli TK-3, penicillinase-producing, 10^6 cells per ml, read-out: MIC
[28] = T216, 10^6 cells per ml, 20 hours, read-out: MIC
[29] = T111, 10^6 cells per ml, 20 hours, read-out: MIC

| Compound | MIC [1] | MIC [2, 20] | MIC ([3]; 20 h, read-out: MIC) | MIC [4, 21] | MIC [6] | MIC ([7]; T111, 20 h, 10^6 cells per ml) | MIC [8] | MIC [9] | MIC ([10]; S68, 20 h) | MIC [12] | MIC ([14]; IFO3445, 20 h) | MIC [15] | MIC [16, 22] | MIC ([17]; GN3379, 20 h) | MIC [5, 23] | MIC [13, 25] | MIC [14, 26] | MIC ([17]; 20 h, read-out: MIC) | MIC [18, 27] | MIC [11, 28] | also measured |
| --- | --- | --- | --- | --- | --- | --- | --- | --- | --- | --- | --- | --- | --- | --- | --- | --- | --- | --- | --- | --- | --- |
| O=C(O)c1cn(-c2ccc(F)cc2)c(-c2cc3ccccc3s2)cc1=O | 0.39 µg/mL (≈ 1.07 µM) | 1.56 µg/mL (≈ 4.27 µM) | 1.56 µg/mL (≈ 4.27 µM) | 0.78 µg/mL (≈ 2.13 µM) | 0.39 µg/mL (≈ 1.07 µM) | 3.13 µg/mL (≈ 8.57 µM) | 3.13 µg/mL (≈ 8.57 µM) | 0.78 µg/mL (≈ 2.13 µM) | 6.25 µg/mL (≈ 17.1 µM) | 6.25 µg/mL (≈ 17.1 µM) | 12.5 µg/mL (≈ 34.2 µM) | 12.5 µg/mL (≈ 34.2 µM) | 0.39 µg/mL (≈ 1.07 µM) | 12.5 µg/mL (≈ 34.2 µM) |  |  |  |  |  |  | MIC [5]: 3.13 µg/mL (≈ 8.57 µM); MIC ([11]; T216, 20 h, 10^6 cells per ml): 3.13 µg/mL (≈ 8.57 µM); MIC [13]: 3.13 µg/mL (≈ 8.57 µM); MIC [18]: 3.13 µg/mL (≈ 8.57 µM) |
| Cc1nc2ccc(-c3cc(=O)c(C(=O)O)cn3-c3ccc(O)cc3)cc2s1 | ≤ 0.05 µg/mL | 0.78 µg/mL (≈ 2.06 µM) | 1.56 µg/mL (≈ 4.12 µM) | 0.39 µg/mL (≈ 1.03 µM) | 0.39 µg/mL (≈ 1.03 µM) | 3.13 µg/mL (≈ 8.27 µM) | 0.39 µg/mL (≈ 1.03 µM) | 0.2 µg/mL (≈ 0.529 µM) |  | 3.13 µg/mL (≈ 8.27 µM) |  | 3.13 µg/mL (≈ 8.27 µM) | 0.39 µg/mL (≈ 1.03 µM) |  | 1.56 µg/mL (≈ 4.12 µM) | 0.39 µg/mL (≈ 1.03 µM) | 25 µg/mL (≈ 66.1 µM) | 12.5 µg/mL (≈ 33 µM) | 0.78 µg/mL (≈ 2.06 µM) |  | MIC [10, 24]: 12.5 µg/mL (≈ 33 µM); MIC ([11]; T216, 20 h, 10^6 cells per ml): 3.13 µg/mL (≈ 8.27 µM) |
| CC(=O)Oc1ccc(-n2cc(C(=O)O)c(=O)cc2-c2cc3ccccc3o2)cc1 | 0.2 µg/mL (≈ 0.514 µM) | 1.56 µg/mL (≈ 4.01 µM) |  | 0.39 µg/mL (≈ 1 µM) | 0.39 µg/mL (≈ 1 µM) | 6.25 µg/mL (≈ 16.1 µM) | 0.78 µg/mL (≈ 2 µM) | 0.78 µg/mL (≈ 2 µM) | 6.25 µg/mL (≈ 16.1 µM) | 6.25 µg/mL (≈ 16.1 µM) | 6.25 µg/mL (≈ 16.1 µM) | 12.5 µg/mL (≈ 32.1 µM) | 0.39 µg/mL (≈ 1 µM) | 6.25 µg/mL (≈ 16.1 µM) | 3.13 µg/mL (≈ 8.04 µM) | 1.56 µg/mL (≈ 4.01 µM) |  |  | 3.13 µg/mL (≈ 8.04 µM) | 3.13 µg/mL (≈ 8.04 µM) | MIC [19]: 0.78 µg/mL (≈ 2 µM) |
| O=C(O)c1cn(-c2ccc(O)cc2)c(-c2ccc3ccsc3c2)cc1=O | ≤ 0.05 µg/mL | 0.39 µg/mL (≈ 1.07 µM) | 0.78 µg/mL (≈ 2.15 µM) | 0.1 µg/mL (≈ 0.275 µM) | ≤ 0.05 µg/mL | 1.56 µg/mL (≈ 4.29 µM) | 0.39 µg/mL (≈ 1.07 µM) | ≤ 0.05 µg/mL | 1.56 µg/mL (≈ 4.29 µM) | 0.78 µg/mL (≈ 2.15 µM) | 1.56 µg/mL (≈ 4.29 µM) | 1.56 µg/mL (≈ 4.29 µM) | 0.1 µg/mL (≈ 0.275 µM) |  | 0.39 µg/mL (≈ 1.07 µM) | 0.2 µg/mL (≈ 0.55 µM) |  | 3.13 µg/mL (≈ 8.61 µM) | 0.39 µg/mL (≈ 1.07 µM) | 0.39 µg/mL (≈ 1.07 µM) |  |
| CN(C)c1ccc(-c2cc(=O)c(C(=O)O)cn2-c2ccc(O)cc2F)cc1 | ≤ 0.05 µg/mL | 0.2 µg/mL (≈ 0.543 µM) |  | ≤ 0.05 µg/mL | ≤ 0.05 µg/mL |  | 0.2 µg/mL (≈ 0.543 µM) | ≤ 0.05 µg/mL |  | 3.13 µg/mL (≈ 8.5 µM) |  | 0.78 µg/mL (≈ 2.12 µM) | ≤ 0.05 µg/mL | 3.13 µg/mL (≈ 8.5 µM) | 0.2 µg/mL (≈ 0.543 µM) | 0.1 µg/mL (≈ 0.271 µM) | 1.56 µg/mL (≈ 4.23 µM) |  | 0.2 µg/mL (≈ 0.543 µM) | 0.78 µg/mL (≈ 2.12 µM) | MIC [7, 29]: 0.78 µg/mL (≈ 2.12 µM); MIC [19]: 0.1 µg/mL (≈ 0.271 µM); MIC [10, 24]: 0.78 µg/mL (≈ 2.12 µM) |
| COCOC(=O)c1cn(-c2ccc(O)cc2)c(-c2ccc(N(C)C)cc2)cc1=O | ≤ 0.05 µg/mL |  |  | 0.39 µg/mL (≈ 0.989 µM) | 0.39 µg/mL (≈ 0.989 µM) | 3.13 µg/mL (≈ 7.94 µM) | 0.78 µg/mL (≈ 1.98 µM) | 0.2 µg/mL (≈ 0.507 µM) | 3.13 µg/mL (≈ 7.94 µM) | 3.13 µg/mL (≈ 7.94 µM) |  | 3.13 µg/mL (≈ 7.94 µM) | 0.39 µg/mL (≈ 0.989 µM) |  | 1.56 µg/mL (≈ 3.96 µM) | 0.39 µg/mL (≈ 0.989 µM) | 6.25 µg/mL (≈ 15.8 µM) | 6.25 µg/mL (≈ 15.8 µM) | 1.56 µg/mL (≈ 3.96 µM) | 1.56 µg/mL (≈ 3.96 µM) | MIC ([2]; GN76, 20 h): 3.13 µg/mL (≈ 7.94 µM); MIC ([3]; GN918, 20 h): 3.13 µg/mL (≈ 7.94 µM) |
| Cc1cc(F)ccc1-n1cc(C(=O)O)c(=O)cc1C1CC=CCC1 (stereo not drawn) | 0.78 µg/mL (≈ 2.38 µM) | 6.25 µg/mL (≈ 19.1 µM) | 12.5 µg/mL (≈ 38.2 µM) |  | 0.39 µg/mL (≈ 1.19 µM) |  | 3.13 µg/mL (≈ 9.56 µM) | 1.56 µg/mL (≈ 4.77 µM) |  | 25 µg/mL (≈ 76.4 µM) |  | 25 µg/mL (≈ 76.4 µM) |  |  | 12.5 µg/mL (≈ 38.2 µM) | 6.25 µg/mL (≈ 19.1 µM) | 100 µg/mL (≈ 305 µM) | 100 µg/mL (≈ 305 µM) | 12.5 µg/mL (≈ 38.2 µM) | 12.5 µg/mL (≈ 38.2 µM) | MIC [4]: 3.13 µg/mL (≈ 9.56 µM); MIC [7, 29]: 25 µg/mL (≈ 76.4 µM); MIC [10, 24]: 50 µg/mL (≈ 153 µM); MIC [16]: 3.13 µg/mL (≈ 9.56 µM) |
